In assay [1] the target is Fibrils 4174 (Homo sapiens, UniProt P37840). The assay can be described thus: 3H radioligand competition, Fibrils 4174. Format: binding. As to conditions: hot concentration 2 nM. Here is the method: (§1) A series of compounds were synthesized and the Ki (nM) in the presence of Fibrils 4174, PD-seeded fibrils (using Tg-1-90B as the radioligand), AD Tissue 6843 and/or AD Tissue 2846 was determined. In each experiment, the “hot” concentration was 2 nM.

Assay [2] concerns the target T1, PD-seeded fibrils (Homo sapiens (Human), UniProt P37840). Nature of the assay: Radioligand competition, PD-seeded fibrils (Tg-1-90B as radioligand). Conditions: PD-seeded fibrils (Tg-1-90B radioligand); hot concentration 2 nM. The assay is classed as binding. How it is done:
as §1

Assay [3] deals with AD Tissue 6843. Nature of the assay: 3H radioligand competition, AD Tissue 6843. As to conditions: hot concentration 2 nM. Format: binding. How it is done: as §1
(Displacement assays read how much labelled ligand stays bound in the presence of the test substance.)

For assay [4], the target named is AD Tissue 2846. The assay can be described thus: 3H radioligand competition, AD Tissue 2846. As to conditions: hot concentration 2 nM. Format: binding. How it is done: as §1
In assay [5] the test system is Banner AD tissue. Nature of the assay: Homologous competition radioligand binding assay, AD tissue. Set-up: species or system human. Conditions: [18F]28. How it is done:
(§2) The equilibrium dissociation constant (Kd) for a series of compounds was determined using direct radioactive competitive binding assays (homologous or heterologous) with either recombinant α-synuclein fibrils or brain tissue homogenates from AD cases.
Brain tissue samples were selected from an autopsy case series of patients evaluated for parkinsonism by movement disorders specialists at the Movement Disorders Center of Washington University School of Medicine in St. Louis. […] Dementia was determined by a movement disorders specialist based on clinical assessment of cognitive dysfunction sufficiently severe to impair activities of daily living, with further evaluation of cognitive impairment using the AD8 and Mini-Mental Status Exam (MMSE) [Galvin, J. E., et al., “The AD8: a brief informant interview to detect dementia,” 2005, Neurology 65:559-564; Folstein, M. F., et al., ““Mini-mental state”. […] LB stage was assessed at autopsy using a PD staging scale (range: 0, 1-6) [Braak, H., et al., “Stages in the development of Parkinson's disease-related pathology,” 2004, Cell Tissue Res., 318:121-134]. PD cases were selected based on a clinical diagnosis of PD plus dementia, Braak LB stage 5-6 pathology, and the absence of significant Aβ or tau pathology determined by immunohistochemistry. […]

The target of assay [6] is T2, α-synuclein fibrils (Homo sapiens (Human), UniProt P37840). The assay can be described thus: Direct radioligand binding assay of [18F]28, α-synuclein fibrils. Conditions: α-synuclein fibrils. Here is the method: as §2
(§3) Recombinant protein was produced in E. coli using protocols based on previously described methods for α-synuclein [Giasson, B. I., et al., “Mutant and wild type human alpha-synucleins assemble into elongated filaments with distinct morphologies in vitro,” 1999, J Biol. Chem., 274:7619-7622; Huang, C., et al., “A new method for purification of recombinant human alpha-synuclein in Escherichia coli,” 2005, Protein Expr Purif, 42:173-177; Yu, L., et al, “Synthesis and in vitro evaluation of á-synuclein ligands,” 2012, Bioorg. […]
(§4) Purified recombinant α-synuclein monomer (2 mg/ml) was incubated in 20 mM Tris-HCl, pH 8.0, 100 mM NaCl for 72 h at 37 C with shaking at 1000 rpm in an Eppendorf Thermomixer. […] The concentration of α-synuclein monomer in the supernatant was determined in a BCA protein assay according to the manufacturer's instructions, using a bovine serum albumin (BSA) standard curve. The measured decrease in α-synuclein monomer concentration was used to determine the concentration of fibrils in the 72 h fibril reaction mixture. […]

The subject of assay [7] is α-synuclein fibrils. The description is as above. On the set-up: species or system human. Conditions: comparison of Kd on fibrils and AD tissue. How it is done:
as §2, §3, §4

The target in assay [8] is T2, α-synuclein fibrils. The assay can be described thus: Thioflavin T fluorescence competitive assay. As to conditions: read-out: Thioflavin T assay Ki; competition with ThT on recombinant α-synuclein fibrils; at least three experiments.
Procedure: α-Synuclein recombinant protein was produced in E. coli. BL21(DE3)RIL E. coli were transformed with a pRK172 bacterial expression plasmid containing the human α-synuclein coding sequence. […] Overnight cultures were pelleted by centrifugation at 3,900×g for 10 min at 25° C. Bacterial pellets were resuspended in 20 mL osmotic shock buffer (30 mM Tris-HCl, 2 mM EDTA, 40% sucrose, pH 7.2) by gentle vortexing and incubated at room temperature for 10 minutes. The cell suspension was then centrifuged at 8,000×g for 10 min at 25° C. and the pellet was resuspended in 22.5 mL cold H2O before adding 9.4 μL 2 M MgCl2 to each tube. The suspension was incubated on ice for 3 min prior to centrifugation at 20,000×g for 15 min at 4° C. The supernatant was transferred to a fresh tube, streptomyocin was added to a final concentration of 10 mg/mL, and then centrifuged at 20,000×g for 15 min at 4° C. The supernatant from this step was collected and dithiothreitol (DTT) and Tris-HCl were added to final concentrations of 1 mM and 20 mM respectively, before boiling for 10 min to precipitate heat-sensitive proteins, which were pelleted at 20,000×g for 15 minutes at 4° C. The supernatant was collected and filtered through a 0.45 μm surfactant free cellulose acetate filter (Corning, Corning, NY) before loading onto a 1 mL DEAE Sepharose column equilibrated in 20 mM Tris-HCl pH 8, 1 mM EDTA, and 1 mM DTT. The DEAE column was washed with 20 mM Tris-HCl pH 8, 1 mM EDTA, 1 mM DTT before eluting α-synuclein protein in 20 mM Tris-HCl, pH 8, buffer with 1 mM EDTA, 1 mM DTT and 0.3 M NaCl. The purified α-synuclein protein was dialyzed overnight in 10 mM Tris-HCl, pH 7.6, 50 mM NaCl, and 1 mM DTT.
The purified, recombinant α-synuclein monomer (2 mg/mL) was incubated in Tris-HCl (20 mM) and NaCl (100 mM) while shaking at 1000 rpm in an Eppendorf Thermomixer in a 37° C. temperature-controlled room for 72 hours. To determine the concentration of fibrils, the reaction mixture (100 μL) was centrifuged at 18,000×g for 10 minutes to separate fibrils from monomer. The α-synuclein monomer and other soluble proteins in the supernatant were removed, and the fibril pellet was resuspended in 100 μL solution of Tris-HCl (20 mM) and NaCl (100 mM). This fibril suspension was used in a bicinchoninic acid (BCA) protein assay along with a bovine serum albumin (BSA) standard curve to determine the concentration of fibrils in the 72 hour fibril reaction mixture.
To prepare the fibrils for performing binding assays, the fibril reaction mixture prepared above was centrifuged at 18,000×g for 10 minutes. The supernatant was discarded and the fibril pellet was resuspended in Tris-HCl buffer (30 nM, pH=7.4) to achieve the desired concentration (3 or 6 μM) of fibrils for use in the assay.
The ThT solution (6 μM) in Tris-HCl buffer (30 nM, pH=7.4, 40 μL) was added to each of three cells in a 96 cell plate for fluorescence detection containing α-synuclein fibrils suspension (3.0 μM) in the Tris-HCl buffer (30 nM, pH=7.4, 40 μL). The mixture was incubated at room temperature for 1 hour on the shaking plate. The reaction plate was scanned by the excitation wavelength range from 430 to 465 nm. The maximum excitation wavelength (λex) was determined according to the fluorescent intensity-excitation wavelength curve.
In assay [9] the target is Banner seeded fibrils (Homo sapiens (Human), UniProt P37840). Nature of the assay: Saturation binding of [125I]TZ61-84 to Banner seeded fibrils. Here is the method:
The binding efficacy (Kd) of TZ-61-84 was determined using a modified protocol. Specifically, saturation plots of radiolabeled [^125I]TZ61-84 were obtained measuring total and nonspecific binding of TZ61-84 to 100 nM Banner seeded fibrils. The results are depicted in FIG. 15B-15D and that TZ61-84 has a high binding affinity to α-synuclein (Kd<1 nM).

Assay [10] deals with T1, PD-seeded fibrils. Nature of the assay: Heterologous competition binding assay with [18F]TZ61-44 as radioligand. Conditions: radioligand [18F]TZ61-44, 25 nM PD-seeded fibrils; for Ki: Cheng-Prusoff from EC50. How it is done: (§5) The equilibrium inhibitor constant (Ki) of a series of compounds was measured using heterologous radioactive binding assays with [^18F]TZ61-44, […], or [^125I]TZ61-84 as the screening radioligands. EC50 values for each compound were determined by fitting the data to the equation Y=Bottom+(Top−Bottom)/(1+(X−Log EC50)^−Hillcoefficient) using nonlinear regression by Kaleidagraph software, where Top and Bottom are the Y values for the top and bottom plateaus of the binding curve. The Ki values were derived from the EC50 values using the Cheng-Prusoff equation: Ki=EC50/(1+[radioligand]/Kd). FIGS. 5A-5E show the inhibition curves for TG-1-90B, TZ55-101, TZ61-84, TZ55-107, and TZ55-81 using [^18F]TZ61-44 as the radioligand. FIG. 11B-C show the inhibition curves for two separate experiments on PD fibrils for TZ55-101 using […] as the radioligand. FIGS. 12A-12F show the inhibition curves for TZ66-3, TZ64-015, TZ64-016, TZ64-018, TZ64-019, and TZ64-020 using [^18F]TZ61-44 as the radioligand. FIGS. 13A-13D show the inhibition curves for TZ66-9, TZ66-8, and TZ55-107 using [^18F]TZ61-44 as the radioligand.

Assay [11] concerns Banner PD tissue. The assay can be described thus: Specific binding of TZ61-84: displacement of [18F]TZ-61-84 from tissue. As to conditions: [18F]TZ-61-84 at 0.0195 nM. Here is the method:
(§6) TZ61-84 was screened for binding to Banner PD tissue, AD tissue, α-synuclein fibrils, Aβ fibrils and in controls by measuring how well it displaced [^18F]TZ-61-84 (at 0.0195 nM) from each substrate.

The target of assay [12] is T2, α-synuclein fibrils. Nature of the assay: Specific binding of TZ61-84: displacement of [18F]TZ-61-84 from fibrils. As to conditions: [18F]TZ-61-84 at 0.0195 nM. Here is the method:
as §6

Assay [13] has as its target PD fibrils (Homo sapiens (Human), UniProt P37840). The assay can be described thus: Heterologous competition binding assay with [11C]Tg-1-90B as radioligand. As to conditions: radioligand Tg-1-90-B. How it is done: as §5
The subject of assay [14] is AD Tissue 6843. The assay can be described thus: Heterologous competition binding assay with [11C]Tg-1-90-B, AD tissue. As to conditions: radioligand [11C]Tg-1-90-B. Here is the method:
FIG. 11D is a plot of a heterologous competition binding assay of TZ55-101 in the presence of the radioligand [^11C]Tg-1-90-B and AD tissue 6843.
as §5
The binding to AD fibrils was also assessed for TZ55-101 in FIG. 11D.

Values joined by “and” are separate entries in the source; they are usually repeats but may differ in a detail not shown here. Identical values can stand only once.

This note sets out measurements from patent US12012394B2, “Alpha-synuclein ligands” (Washington University, priority 2018, dated 2024).

As a reminder, the Ki is the equilibrium dissociation constant of an inhibitor or competing ligand from its target. As a reminder, the Kd is the constant that tells how readily two partners part at equilibrium. By EC50 is commonly meant the concentration giving half of the maximal effect. A low value points to greater potency.

As to `COc1ccc2nc(-c3noc(-c4ccc(-n5cccn5)cc4)n3)ccc2c1` [TZ46-148], the Ki came out at 82 nM in assay [1], 17 nM in assay [2], 13 nM in assay [3] and 7 nM in [4].
In the case of `COc1cc(-c2nc(-c3ccc4cc(OCCF)ccc4n3)no2)ccn1` [Compound 28, 3-(6-(2-Fluoroethoxy)quinolin-2-yl)-5-(2-methoxypyridin-4-yl)-1,2,4-oxadiazole], the Bmax in assay [5] turned out to be 1082 pmol/mg. For the same compound, the Kd in assay [5] came to 25 nM; in [6], 18 nM. The “selectivity for α-synuclein fibrils over AD tissues” value in assay [7] is “lacks selectivity”. In addition, the Ki in assay [8] is 17 nM.
As for `COc1ccc(Nc2ccc3cc(OC/C=C/I)ccc3n2)cn1` [TZ61-84], the Kd in assay [9] (100 nM Banner seeded fibrils, saturation binding) was 0.34 nM and 0.5 nM. For the same compound, the Kd in assay [9] (100 nM fibrils, saturation plot, unit inferred) is 0.338 nM and 0.496 nM. Further, in assay [9] (100 nM fibrils, saturation plot, unit not given, listed as [^125I]TZ61-84), the Bmax is 259.7 and 310.5. In assay [10], it took 17 nM to reach a half-maximal effect (EC50) and affinity was put at a Ki of 16 nM. In assay [11], the “affinity for PD Banner tissue compared to AD Banner tissue” value is on record as “high affinity”. In [12], the “affinity for α-synuclein fibrils over Aβ fibrils” value is on record as “slightly more affinity”.
As for `COc1ccc2nc(-c3noc(-c4ccc5ncccc5c4)n3)ccc2c1` [TZ46-147], the Ki was found to be 96 nM in [1], 39 nM in [2], 21 nM in assay [3] and 30 nM in assay [4].
`COc1ccc2nc(-c3noc(-c4ccc(-n5ccnc5)cc4)n3)ccc2c1` [TZ46-155] gave a Ki in assay [2] of 230 nM.
Consider `COc1ccc(-c2ccc3cc(-c4cnc5ccccc5c4)ccc3n2)cn1` [TZ55-101], for which the EC50 is 15 nM in [10]; 21 nM and 11 nM in assay [13]. In addition, the Ki is 14 nM in [10]; 20 nM and 10 nM in assay [13] (Cheng-Prusoff from EC50). Also, in assay [14], the “affinity for AD fibrils” value was “did not show significant affinity”.
